Ends that are not written are not given here.
Tested on: FVBN and Mdr2KO mice
Test: Non-hepatic effects: serum biomarkers of heart (CK) and kidney (CREA, BUN), IDEXX assay system
Format: in vivo, mouse
Set-up: CREA / BUN: unit not given here
Settings: for effects on heart (CK) and kidneys (CREA, BUN): FVBN and Mdr2KO mice, vs vehicle-treated mice; for CK / BUN / CREA: serum
Method: FVB/N (FVBN) and Mdr2^−/− (Mdr2KO) mice were purchased from Jackson Laboratory (Bar Harbor, Me.) and maintained in a temperature-controlled environment at 20-22° C. with a 12:12 hours light-dark cycle, having free access to food and drinking water. All animal procedures were performed in accord with the guidelines of Baylor Scott and White (Temple, Tex.) Institutional Animal Care and Use Committee, with approved protocols. In time-course experiments, 1 week, 1 months, 2 months and 4 months old male and female FVBN and Mdr2KO mice were used. In experiments designed to measure the effect of various agonists and antagonists of Gal receptors, on the extent of liver fibrosis in Mdr2KO mice, 2 months old, male and female Mdr2KO mice were used, as well as FVBN mice as negative controls. Four to five animals in each group of age/gender/type (FVBN or Mdr2KO) were used. In parallel, an equal number of 2 months old, male and female FVBN and MDR2KO mice were treated with vehicle only (saline or 20% DMSO) via the same type of minipumps. Galanin, M871 and M40 peptides were dissolved in saline or 20% DMSO in saline, depending on their solubility, and administered by using Alzet osmotic minipumps (Cupertino, Calif.). Galanin, M871 and M40, were administered at a rate of 4 nmol/Kg/day (mice weights being 25-30 g). Vivo-morpholino oligos including two sequences specific to mouse GalR1, and one mouse GalR1 mismatch control, were administered at a rate of 25 μg/mouse/day, for 14 days, after which the mice were euthanized with euthasol, followed by exsanguination and collection of liver tissue.
Serum alanine aminotransferase (ALT), aspartate aminotransferase (AST), alkaline phosphatase (ALKP), CREA, BUN and CK were measured using the IDEXX Catalyst One instrument from IDEXX Laboratories, Inc (Houston, Tex.).
To investigate possible adverse effects of GalR antagonists on vital organs other than the liver, blood biomarkers of the heart (creatine kinase, CK) and kidneys (creatinine, CREA; blood urea nitrogen, BUN) were investigated in FVBN and Mdr2KO mice when treated with GalR1 vivo morpholino, M871, and M40 as compared to vehicle-treated mice.
Referring to Table 2, non-hepatic effects of GalR1 vivo morpholino, M871, and M40 Gal receptor antagonists on FVBN mice are shown. Several serum biomarkers including creatine kinase (CK) for heart, creatinine (CREA) and blood urea nitrogen (BUN) for kidney, were assessed by using IDEXX assay system. Normal range: CK, 68-1070 U/L; CREA, […]; BUN, […].

Row | Substance | effects on heart (CK) and kidneys (CREA, BUN) | CK (Female FVBN mice) [U/L] | CK (Female Mdr2KO mice) [U/L] | CK (Male FVBN mice) [U/L] | CK (Male Mdr2KO mice) [U/L] | BUN (Female FVBN mice) | CREA (Female FVBN mice) | BUN (Female Mdr2KO mice) | CREA (Female Mdr2KO mice) | BUN (Male FVBN mice) | CREA (Male FVBN mice) | BUN (Male Mdr2KO mice) | CREA (Male Mdr2KO mice)
1 | GWTLNSAGYLLGPPPALALA-NH2 [M40] | no effects on the heart or kidneys | 151.30 ± 19.90 | 163.33 ± 63.33 | 190.00 ± 58.59 | 103.33 ± 3.33 |  |  |  |  |  |  |  | 
2 | WTLNSAGYLLGPEHPPPALALA-NH2 [M871] | no effects on the heart or kidneys | 136.67 ± 36.67 | 213.33 ± 103.49 | 99.67 ± 0.88 | 230.00 ± 52.92 | 26.55 ± 1.67 | 0.79 ± 0.041 | 23.33 ± 0.49 | 0.68 ± 0.012 | 26.97 ± 0.83 | 0.81 ± 0.063 | 23.04 ± 0.92 | 0.67 ± 0.042
